Data reported in article PMC5491903, “The Selective Phosphoinoside-3-Kinase p110δ Inhibitor IPI-3063 Potently Suppresses B Cell Survival, Proliferation, and Differentiation” (Frontiers in Immunology, 2017).
Read-outs that look alike come from different tables or passages of the source.

How the values were obtained:
[1] = system: AKT phosphorylation in bone marrow-derived myeloid cells; experiment: AKT phosphorylation in myeloid cells stimulated with macrophage colony stimulating factor; format: cell-based; conditions: data not shown
[2] = system: LPS-stimulated mouse B cells; experiment: mouse plasmablast differentiation (CD138+B220lo); format: cell-based; conditions: 72 h
Procedure: Figure 5 IPI-3063 potently […] mouse B cell antibody switching and inhibits plasmablast differentiation. Purified B cells were pretreated with inhibitors, then stimulated with αCD40 + IL-4 (B) or LPS + IL-4 (C) for 96 h to induce switching to IgG1 or LPS (D) for 72 h to induce plasmablast differentiation. Class switching to IgG1 was measured by the 7AAD^−CFSE^loB220^+IgG1^+ cells [(A), upper panels]. Plasmablast percentages were calculated by % 7AAD^−CFSE^loCD138^+B220^lo population [(A), lower]. Supernatant was harvested (E) for IgM ELISA. Concentrations used were 1 nM, 10 nM, 100 nM, 1 µM for IPI-443 and 1, 10, 30, 100 nM for IPI-3063. Low concentrations of IPI-3063 were 0.01 and 0.1 nM (D). AS252424 concentrations were 100 nM, 300 nM, and 1 µM, and GDC-0941 was at 500 nM. Samples were collected by time (*P < 0.05, **P < 0.001, ***P < 0.0001 one-way ANOVA with Newman–Keuls multiple comparison test). […]
We also evaluated plasmablast differentiation and IgM secretion in LPS-stimulated cells (Figure 5D). […]
Mouse splenic B cells were purified by negative selection (eBioscience Magnisort Mouse B cell enrichment kit). B-cell purity was >95% as measured by FACS analysis (FACSCalibur and CellQuest software; BD Biosciences) using anti-B220 antibody (BioLegend). […]

[3] = system: LPS-stimulated mouse B cells; experiment: IgM secretion by ELISA; format: cell-based; conditions: supernatant after 3 days
Description: We also evaluated plasmablast differentiation and IgM secretion in LPS-stimulated cells (Figure 5D). […] In cells treated with IPI-3063 or IPI-443, the highest concentrations inhibited plasmablast differentiation to the same degree as GDC-0941.
For cell culture ELISA to measure total IgM, supernatants from purified B cells stimulated with LPS were collected after 3 days and diluted 1:1,000 in 2% (wt/vol) BSA in PBS. Nunc Maxisorp plates (Thermo Fisher) were coated with anti-mouse IgM (RMM-1; BioLegend) at 10 µg/mL in 50 µL of total sample in PBS and allowed to incubate overnight at 4°C. Diluted supernatant samples were incubated on coated plates for 1 h at 37°C. HRP-conjugated rabbit anti-mouse IgM secondary antibody (Zymed) was used.

p110γ [4] = target: T1, p110γ (Mus musculus, UniProt Q9JHG7); parameters: method as in PMID 16789742; conditions: read-out: biochemical IC50; cited from earlier work
p110α = target: T2, p110α (Homo sapiens, UniProt P42336); experiment: PI3K enzymatic assay (ADP-Glo) with purified enzymes; conditions: purified enzyme, mean ± spread (n), read-out: Biochemical IC50
T2 construct: heterodimers consisting of full length p110α, p110β, or p110δ catalytic subunit and the p85α regulatory subunit; purchased Millipore 14-602-K
Procedure: (§1) Human recombinant PI3K-α (cat. no. 14-602-K), -β (cat. no. 14-603-K), -δ (cat. no. 14-604-K), and -γ (cat. no. 14-558-K) were purchased from Millipore. Phosphatidylinositol 4,5 bis phosphate (diC8-PtdIns(4,5)P2) was purchased from Avanti Polar Lipids, Inc. PI3K-α, β, and δ are heterodimers consisting of full length p110α, p110β, or p110δ catalytic subunit and the p85α regulatory subunit. PI3K-γ is a monomer of the p110γ catalytic subunit. Samples of kinase (10 nM—α, β, and δ; 20 nM—γ) were incubated with inhibitor for 30 min at room temperature in reaction buffer (15 mM HEPES pH 7.4, 20 mM NaCl, 1 mM EGTA, 0.02% Tween 20, 10 mM MgCl2, 0.2 mg/mL bovine-γ-globulins) followed by addition of ATP/diC8-PtdIns(4,5)P2 mixture to give final concentrations of 3 mM ATP and 500 µM diC8-PtdIns(4,5)P2. Reactions were incubated at room temperature for 2 h, with PI3K activity assessed via the Promega ADP-Glo Max assay kit (cat. no. V7002) according to the manufacturer’s instruction. Plates were read on Envision plate reader in luminescence mode.

p110γ [5] = target: T3, p110γ (Homo sapiens, UniProt P48736); experiment: as above; conditions: purified enzyme, mean ± spread (n), read-out: Biochemical IC50
T3 construct: purchased Millipore 14-558-K
Procedure: as §1

p110δ = target: T4, p110δ (Homo sapiens, UniProt O00329); experiment: as above; conditions: purified enzyme, mean ± spread (n), read-out: Biochemical IC50
T4 construct: heterodimers consisting of full length p110α, p110β, or p110δ catalytic subunit and the p85α regulatory subunit; purchased Millipore 14-604-K
Procedure: as §1

p110γ [6] = target: T1, p110γ; experiment: isoform-specific cell-based assay, pAKT S473 ELISA; parameters: endogenous in cells; host or cells: Raw264.7; conditions: read-out: Cellular IC50
Procedure: Phospho-Akt1 (S473) sandwich ELISA antibody kit (Cell Signaling Technology, cat. no. 7143) was utilized to analyze pAKT signal in cells as described previously by Winkler et al. ([11]) (for data see Table 2). Briefly, SKOV3 and 786.0 cells were seeded into 96-well cell culture-graded plates at a density of […] per 200 µl culture media per well. Raji and Raw264.7 were seeded at the same density in FBS-free media. After overnight incubation at 5% CO2 and 37°C, the cells were treated with inhibitor for 30 min. Raji cells were stimulated with 10 µg/mL anti-human IgM (Jackson ImmunoResearch) for 30 min and Raw264.7 cells with 25 nM C5a (RnD Systems) for 3 min in the presence of inhibitor. SKOV3 and 786.0 cells were not stimulated. Medium was then aspirated and 50 µL/well of ice-cold lysis buffer was added. pAKT level was determined according to the manufacturer’s instruction.

T1 sequence (Q9JHG7 whole entry): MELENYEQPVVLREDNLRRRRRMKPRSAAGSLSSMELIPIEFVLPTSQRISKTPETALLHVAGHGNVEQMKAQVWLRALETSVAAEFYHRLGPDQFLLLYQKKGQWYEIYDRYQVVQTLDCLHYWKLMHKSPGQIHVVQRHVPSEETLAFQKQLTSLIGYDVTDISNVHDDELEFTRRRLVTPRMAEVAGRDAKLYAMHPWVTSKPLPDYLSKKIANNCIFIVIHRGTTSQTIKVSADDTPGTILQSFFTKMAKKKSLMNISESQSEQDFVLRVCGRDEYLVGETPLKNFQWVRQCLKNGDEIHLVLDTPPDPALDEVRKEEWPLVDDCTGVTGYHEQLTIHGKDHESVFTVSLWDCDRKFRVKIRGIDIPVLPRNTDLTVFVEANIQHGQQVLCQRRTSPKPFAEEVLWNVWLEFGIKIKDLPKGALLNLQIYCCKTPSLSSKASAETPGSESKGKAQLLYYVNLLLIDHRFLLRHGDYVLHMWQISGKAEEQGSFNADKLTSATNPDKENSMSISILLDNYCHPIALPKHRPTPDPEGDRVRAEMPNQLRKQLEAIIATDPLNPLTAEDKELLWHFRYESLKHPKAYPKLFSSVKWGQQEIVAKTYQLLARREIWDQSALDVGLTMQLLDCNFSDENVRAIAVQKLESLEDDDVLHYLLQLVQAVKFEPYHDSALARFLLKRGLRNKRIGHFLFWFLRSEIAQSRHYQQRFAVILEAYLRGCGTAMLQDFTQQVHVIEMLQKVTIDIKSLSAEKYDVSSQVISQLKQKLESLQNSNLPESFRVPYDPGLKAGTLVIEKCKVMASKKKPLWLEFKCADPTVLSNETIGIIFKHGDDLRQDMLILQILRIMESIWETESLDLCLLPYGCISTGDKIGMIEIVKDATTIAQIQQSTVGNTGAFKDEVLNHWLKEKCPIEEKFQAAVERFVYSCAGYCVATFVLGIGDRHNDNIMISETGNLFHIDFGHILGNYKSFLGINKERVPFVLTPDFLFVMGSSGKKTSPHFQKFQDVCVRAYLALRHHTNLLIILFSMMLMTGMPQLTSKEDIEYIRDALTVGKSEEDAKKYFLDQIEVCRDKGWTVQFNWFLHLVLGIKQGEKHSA
T2 sequence (P42336 whole entry): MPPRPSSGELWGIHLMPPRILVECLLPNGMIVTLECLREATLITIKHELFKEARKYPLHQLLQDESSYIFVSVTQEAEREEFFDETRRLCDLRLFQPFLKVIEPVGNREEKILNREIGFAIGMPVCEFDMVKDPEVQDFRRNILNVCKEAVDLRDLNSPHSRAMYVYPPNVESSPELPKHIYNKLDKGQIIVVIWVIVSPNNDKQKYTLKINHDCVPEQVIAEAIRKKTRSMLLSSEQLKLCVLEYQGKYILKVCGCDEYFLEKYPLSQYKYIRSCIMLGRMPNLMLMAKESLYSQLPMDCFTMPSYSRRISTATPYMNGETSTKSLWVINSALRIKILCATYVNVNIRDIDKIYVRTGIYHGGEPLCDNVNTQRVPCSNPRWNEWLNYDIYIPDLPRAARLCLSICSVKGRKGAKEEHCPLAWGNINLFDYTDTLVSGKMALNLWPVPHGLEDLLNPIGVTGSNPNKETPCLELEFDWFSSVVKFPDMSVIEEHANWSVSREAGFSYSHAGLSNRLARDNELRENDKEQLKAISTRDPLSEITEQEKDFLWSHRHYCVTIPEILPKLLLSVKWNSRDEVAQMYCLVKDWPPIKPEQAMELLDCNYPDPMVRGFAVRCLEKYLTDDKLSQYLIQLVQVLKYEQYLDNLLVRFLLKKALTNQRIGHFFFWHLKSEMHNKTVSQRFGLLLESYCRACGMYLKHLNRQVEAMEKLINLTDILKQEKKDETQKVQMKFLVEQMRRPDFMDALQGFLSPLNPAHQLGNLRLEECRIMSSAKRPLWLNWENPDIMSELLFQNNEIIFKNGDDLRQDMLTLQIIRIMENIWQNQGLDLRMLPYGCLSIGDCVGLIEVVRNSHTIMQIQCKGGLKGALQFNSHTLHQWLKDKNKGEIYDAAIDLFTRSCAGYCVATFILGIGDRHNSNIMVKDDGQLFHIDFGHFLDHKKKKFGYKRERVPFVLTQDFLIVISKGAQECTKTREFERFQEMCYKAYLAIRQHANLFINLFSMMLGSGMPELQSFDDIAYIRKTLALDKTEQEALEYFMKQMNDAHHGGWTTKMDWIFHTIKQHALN
T2 sequence (P27986 whole entry partner): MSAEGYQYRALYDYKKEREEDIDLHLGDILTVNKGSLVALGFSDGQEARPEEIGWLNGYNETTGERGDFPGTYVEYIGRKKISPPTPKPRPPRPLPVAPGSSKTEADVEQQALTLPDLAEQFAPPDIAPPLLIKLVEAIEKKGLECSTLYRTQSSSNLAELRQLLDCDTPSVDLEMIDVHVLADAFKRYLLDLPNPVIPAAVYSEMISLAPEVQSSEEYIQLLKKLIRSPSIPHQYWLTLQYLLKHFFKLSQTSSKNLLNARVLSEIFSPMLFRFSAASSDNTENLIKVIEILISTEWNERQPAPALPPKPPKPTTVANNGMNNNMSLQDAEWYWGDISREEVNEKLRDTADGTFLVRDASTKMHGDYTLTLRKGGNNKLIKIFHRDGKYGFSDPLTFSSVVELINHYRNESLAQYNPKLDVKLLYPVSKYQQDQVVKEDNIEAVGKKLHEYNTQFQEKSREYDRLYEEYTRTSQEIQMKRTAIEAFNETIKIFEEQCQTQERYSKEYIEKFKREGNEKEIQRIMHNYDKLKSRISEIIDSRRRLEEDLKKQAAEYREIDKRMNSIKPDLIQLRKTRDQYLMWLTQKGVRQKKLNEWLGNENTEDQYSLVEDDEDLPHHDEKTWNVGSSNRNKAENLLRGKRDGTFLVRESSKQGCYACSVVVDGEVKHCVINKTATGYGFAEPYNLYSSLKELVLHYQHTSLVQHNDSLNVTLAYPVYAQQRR
T3 sequence (P48736 whole entry): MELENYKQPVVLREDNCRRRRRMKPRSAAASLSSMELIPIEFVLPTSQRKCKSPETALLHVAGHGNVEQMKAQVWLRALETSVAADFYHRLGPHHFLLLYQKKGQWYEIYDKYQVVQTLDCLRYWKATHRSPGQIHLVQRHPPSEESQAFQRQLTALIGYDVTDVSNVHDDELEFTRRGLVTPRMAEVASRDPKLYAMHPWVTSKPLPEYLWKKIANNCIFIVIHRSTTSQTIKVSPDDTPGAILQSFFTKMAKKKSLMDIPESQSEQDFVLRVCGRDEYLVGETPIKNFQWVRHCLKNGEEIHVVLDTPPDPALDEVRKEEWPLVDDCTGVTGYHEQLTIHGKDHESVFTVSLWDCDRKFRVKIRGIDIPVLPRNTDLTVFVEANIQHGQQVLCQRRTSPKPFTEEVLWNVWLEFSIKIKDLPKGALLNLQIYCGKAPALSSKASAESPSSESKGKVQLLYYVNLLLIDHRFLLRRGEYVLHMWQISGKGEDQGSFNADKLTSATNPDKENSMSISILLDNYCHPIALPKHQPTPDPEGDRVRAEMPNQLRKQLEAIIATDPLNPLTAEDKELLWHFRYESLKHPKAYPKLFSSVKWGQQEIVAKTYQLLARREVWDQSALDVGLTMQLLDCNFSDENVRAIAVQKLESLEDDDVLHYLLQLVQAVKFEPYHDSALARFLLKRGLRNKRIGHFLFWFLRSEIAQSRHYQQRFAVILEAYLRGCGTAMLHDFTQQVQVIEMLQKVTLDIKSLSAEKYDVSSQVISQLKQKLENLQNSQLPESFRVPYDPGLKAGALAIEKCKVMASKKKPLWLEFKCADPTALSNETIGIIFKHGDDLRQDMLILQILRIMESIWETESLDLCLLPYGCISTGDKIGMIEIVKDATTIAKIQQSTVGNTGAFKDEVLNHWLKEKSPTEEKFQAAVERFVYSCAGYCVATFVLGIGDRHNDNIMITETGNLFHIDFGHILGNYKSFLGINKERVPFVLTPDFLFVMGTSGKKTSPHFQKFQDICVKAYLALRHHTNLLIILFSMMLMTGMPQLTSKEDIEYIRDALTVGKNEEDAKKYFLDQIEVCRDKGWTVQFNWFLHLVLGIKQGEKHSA
T4 sequence (O00329 whole entry): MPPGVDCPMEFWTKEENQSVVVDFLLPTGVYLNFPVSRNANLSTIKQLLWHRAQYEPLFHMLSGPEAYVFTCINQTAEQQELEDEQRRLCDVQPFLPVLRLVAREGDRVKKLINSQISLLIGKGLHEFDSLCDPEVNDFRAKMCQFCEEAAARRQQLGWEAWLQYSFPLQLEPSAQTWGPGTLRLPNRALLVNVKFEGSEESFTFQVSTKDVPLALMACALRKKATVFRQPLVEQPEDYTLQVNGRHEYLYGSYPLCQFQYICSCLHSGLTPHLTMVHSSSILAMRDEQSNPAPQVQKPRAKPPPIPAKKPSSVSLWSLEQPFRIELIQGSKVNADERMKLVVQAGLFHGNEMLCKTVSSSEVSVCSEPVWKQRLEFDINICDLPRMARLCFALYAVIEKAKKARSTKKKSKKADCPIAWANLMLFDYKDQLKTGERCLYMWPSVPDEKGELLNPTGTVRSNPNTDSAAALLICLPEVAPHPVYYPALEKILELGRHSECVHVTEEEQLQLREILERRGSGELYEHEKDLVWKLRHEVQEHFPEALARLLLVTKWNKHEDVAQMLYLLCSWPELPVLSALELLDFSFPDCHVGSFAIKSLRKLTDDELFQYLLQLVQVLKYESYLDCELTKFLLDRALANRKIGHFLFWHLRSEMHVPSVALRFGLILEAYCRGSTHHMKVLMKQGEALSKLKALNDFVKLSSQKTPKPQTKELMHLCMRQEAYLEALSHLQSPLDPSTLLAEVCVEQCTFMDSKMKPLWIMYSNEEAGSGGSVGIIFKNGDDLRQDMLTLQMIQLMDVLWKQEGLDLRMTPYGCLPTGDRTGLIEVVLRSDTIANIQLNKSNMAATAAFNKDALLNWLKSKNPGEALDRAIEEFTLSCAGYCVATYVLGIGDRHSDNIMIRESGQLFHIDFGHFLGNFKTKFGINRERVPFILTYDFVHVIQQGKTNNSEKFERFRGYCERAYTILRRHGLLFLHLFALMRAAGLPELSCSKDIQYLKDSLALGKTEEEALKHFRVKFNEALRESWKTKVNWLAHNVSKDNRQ
T4 sequence (P27986 whole entry partner): as the sequence (P27986 whole entry partner) above

Row | SMILES | effect on AKT phosphorylation [1] | effect on plasmablast differentiation [2] | effect on IgM secretion [3] | IC50 (p110γ [4]) [nM] | IC50 (p110α) [nM] | IC50 (p110γ [5]) [nM] | IC50 (p110δ) [nM] | concentration that decreases plasmablast differentiation ([2]; % CD138+B220lo) [nM] | IC50 (p110γ [6]) [nM]
1 | O=C1NC(=O)/C(=C/c2ccc(-c3ccc(F)cc3O)o2)S1 [AS-252424, reference compound] | dose-dependent inhibition | no significant effect | no significant effect | 30 |  |  |  |  | 
2 | CC(C)n1c([C@H](C)Nc2ncnc(N)c2C#N)cc2cccc(-c3ccc(=O)n(C)c3)c2c1=O [IPI-3063] |  |  |  |  | 1170 | 2190 | 2.5 ± 1.2 | ≥ 1 | 419 ± 117
